Data on two molecules can be found in BindingDB's records for PubMed 36074125 (Purdue University, 2022).

In this experiment the target is T1, N-terminal Xaa-Pro-Lys N-methyltransferase 1 (Homo sapiens, UniProt Q9BV86).
T1 sequence (Q9BV86 whole entry): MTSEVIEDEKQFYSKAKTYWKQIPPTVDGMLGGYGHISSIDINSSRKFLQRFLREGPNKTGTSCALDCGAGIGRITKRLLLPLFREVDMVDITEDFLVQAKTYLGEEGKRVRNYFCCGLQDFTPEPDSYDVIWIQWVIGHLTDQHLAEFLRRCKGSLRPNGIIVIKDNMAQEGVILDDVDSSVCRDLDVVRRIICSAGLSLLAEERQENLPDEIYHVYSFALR
Nature of the experiment: Inhibition of full length NTMT1 (1 to 222 residues) (unknown origin) expressed in Escherichia coli BL21 (DE3) using GPKRIA as substrate preincubated for 10 mins followed by substrate addition measured after 15 mins by microplate reader method.

One may read the IC50 as the concentration at which inhibition is half-maximal.

The molecule `CC(C)(NC(=O)O[C@@H]1CN2CCC1CC2)c1csc(-c2ccc(C(F)(F)F)cc2)n1` registered an IC50 of 3200 nM.

Take `CC(C)(NC(=O)O[C@@H]1CN2CCC1CC2)c1csc(-c2ccc(Cl)cc2)n1`: the IC50 amounted to 910 nM.
